Converted amounts (≈) assume the structure as drawn.
Assays:
[1] = test system: Escherichia coli MB5747 (LS 883, tolC); experiment: microbe, parasite or virus in culture; assay type: cell-based; settings: Escherichia coli, read-out: E. coli LS883 tolC (MIC), MHII broth; * = some reduction of growth versus control at […]
[2] = test system: Streptococcus pneumoniae MB6357 (CL 2883); experiment: Nargenicin antibacterial assay (MIC), S. pneumoniae; assay type: cell-based; settings: Streptococcus pneumoniae, read-out: S. pneumoniae MB2883 (MIC), Isosensitest broth; * = some reduction of growth versus control at […]
[3] = target: T1, E. coli DnaE (DNA polymerase III α-subunit from Escherichia coli) (Escherichia coli, UniProt P10443); experiment: In vitro DnaE single enzyme assay (E. coli); assay type: biochemical; settings: read-out: E. coli DnaE IC50 (converted)
T1 construct: EcDnaE (E. coli DnaE residues 1-1160); 6xHis (N); made in house; host or cells: E. coli BL21(DE3)
T1 sequence (P10443 whole entry, the tested form may be a part): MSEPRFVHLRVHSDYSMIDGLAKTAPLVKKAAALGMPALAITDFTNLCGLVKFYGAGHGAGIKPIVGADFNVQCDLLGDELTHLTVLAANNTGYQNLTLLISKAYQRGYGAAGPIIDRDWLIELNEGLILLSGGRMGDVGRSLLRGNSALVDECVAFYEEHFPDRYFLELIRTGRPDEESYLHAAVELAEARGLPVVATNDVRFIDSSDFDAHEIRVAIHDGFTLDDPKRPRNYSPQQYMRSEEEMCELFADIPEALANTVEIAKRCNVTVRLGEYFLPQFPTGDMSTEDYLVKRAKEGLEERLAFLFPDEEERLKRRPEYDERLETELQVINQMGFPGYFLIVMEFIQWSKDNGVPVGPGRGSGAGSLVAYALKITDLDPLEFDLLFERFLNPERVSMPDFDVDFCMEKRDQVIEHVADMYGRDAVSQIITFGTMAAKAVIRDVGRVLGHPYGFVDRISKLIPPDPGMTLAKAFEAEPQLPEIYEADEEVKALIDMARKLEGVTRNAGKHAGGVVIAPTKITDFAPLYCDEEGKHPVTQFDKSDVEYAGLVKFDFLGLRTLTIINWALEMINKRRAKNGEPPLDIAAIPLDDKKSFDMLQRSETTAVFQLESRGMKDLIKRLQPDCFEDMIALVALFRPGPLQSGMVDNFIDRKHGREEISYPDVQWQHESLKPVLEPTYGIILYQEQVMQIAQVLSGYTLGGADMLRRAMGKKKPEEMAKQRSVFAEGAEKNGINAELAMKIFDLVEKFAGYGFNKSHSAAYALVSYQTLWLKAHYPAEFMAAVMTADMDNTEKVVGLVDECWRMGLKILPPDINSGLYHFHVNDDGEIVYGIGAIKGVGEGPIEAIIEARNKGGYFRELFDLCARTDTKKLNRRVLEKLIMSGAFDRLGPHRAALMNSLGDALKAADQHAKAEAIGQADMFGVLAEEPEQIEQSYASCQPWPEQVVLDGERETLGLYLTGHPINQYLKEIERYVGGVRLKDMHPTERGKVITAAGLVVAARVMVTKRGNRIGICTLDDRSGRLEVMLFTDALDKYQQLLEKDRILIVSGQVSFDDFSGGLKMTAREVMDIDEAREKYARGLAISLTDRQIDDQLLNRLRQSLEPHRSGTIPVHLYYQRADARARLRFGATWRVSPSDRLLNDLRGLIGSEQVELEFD
Method in brief: (§1)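 His-tagged E. coli DnaE (residues 1-1160, 0.8 μg/ml) or S. aureus DnaE (residues 1-1065, 0.05 μg/ml) incubated 30 min at 30° C. with activated calf thymus DNA, 0.025 mM dATP/dGTP/dCTP and 0.011 mM 3H-dTTP in Tris pH 7.5/Mg acetate. TCA-precipitated labelled DNA counted.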

[4] = target: T2, S. aureus DnaE (DNA polymerase III α-subunit homolog from Staphylococcus aureus) (Staphylococcus aureus, UniProt Q5HF71); experiment: biochemical; assay type: biochemical; settings: S. aureus DnaE IC50
T2 construct: SaDnaE (S. aureus DnaE residues 1-1065); 6xHis (N); made in house; host or cells: E. coli BL21-AI
T2 sequence (Q5HF71 1-1065): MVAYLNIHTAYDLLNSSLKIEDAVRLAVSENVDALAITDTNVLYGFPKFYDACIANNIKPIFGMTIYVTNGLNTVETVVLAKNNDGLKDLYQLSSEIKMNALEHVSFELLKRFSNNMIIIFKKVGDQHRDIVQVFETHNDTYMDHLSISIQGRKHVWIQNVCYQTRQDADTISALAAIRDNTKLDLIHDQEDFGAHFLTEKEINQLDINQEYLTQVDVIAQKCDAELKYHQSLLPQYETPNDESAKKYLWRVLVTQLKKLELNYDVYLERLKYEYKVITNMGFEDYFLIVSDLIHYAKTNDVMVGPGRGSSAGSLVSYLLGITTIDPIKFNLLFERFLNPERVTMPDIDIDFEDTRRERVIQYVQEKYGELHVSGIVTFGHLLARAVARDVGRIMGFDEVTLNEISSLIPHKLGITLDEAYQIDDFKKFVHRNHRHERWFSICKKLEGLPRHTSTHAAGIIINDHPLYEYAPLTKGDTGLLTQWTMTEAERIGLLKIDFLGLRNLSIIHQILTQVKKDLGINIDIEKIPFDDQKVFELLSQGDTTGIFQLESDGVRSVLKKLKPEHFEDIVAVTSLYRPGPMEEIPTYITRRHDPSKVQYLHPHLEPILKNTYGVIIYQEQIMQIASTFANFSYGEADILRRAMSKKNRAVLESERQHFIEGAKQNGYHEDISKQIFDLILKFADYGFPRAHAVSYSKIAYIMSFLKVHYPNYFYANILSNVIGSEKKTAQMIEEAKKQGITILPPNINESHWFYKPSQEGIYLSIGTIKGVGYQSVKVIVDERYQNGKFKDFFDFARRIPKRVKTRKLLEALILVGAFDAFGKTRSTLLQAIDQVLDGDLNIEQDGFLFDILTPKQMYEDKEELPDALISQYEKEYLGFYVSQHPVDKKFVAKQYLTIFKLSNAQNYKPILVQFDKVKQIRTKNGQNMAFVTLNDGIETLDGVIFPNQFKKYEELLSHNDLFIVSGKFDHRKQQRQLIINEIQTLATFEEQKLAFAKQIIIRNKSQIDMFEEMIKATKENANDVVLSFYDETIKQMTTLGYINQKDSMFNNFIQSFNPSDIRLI
Method in brief: as §1

[5] = test system: Pseudomonas aeruginosa MB5890 (CB1101, efflux-deleted); experiment: microbe, parasite or virus in culture; assay type: cell-based; settings: Pseudomonas aeruginosa, read-out: P. aeruginosa MB5890 efflux-del (MIC), MHII broth; * = some reduction of growth versus control at […]
[6] = test system: Staphylococcus aureus MB6266 (MRSA COL); experiment: Nargenicin antibacterial assay (MIC), S. aureus; assay type: cell-based; settings: Staphylococcus aureus, MRSA, read-out: S. aureus COL (MIC), MHII broth + 50% human serum; * = some reduction of growth versus control at […]

SMILES	MIC [1] [µg/mL]	MIC [2] [µg/mL]	IC50 [3] [µM]	IC50 [4] [µM]	MIC [5] [µg/mL]	MIC [6] [µg/mL]
CO[C@H]1C[C@H]2C(=O)C[C@H]3[C@H]4O[C@]2(/C(C)=C/[C@@H](C)[C@@H]([C@@H](C)O)OC1=O)[C@@H]3[C@H](O)[C@@H](C)[C@H]4OC(=O)c1ccc[nH]1 [Example 182]	8 (≈ 15 µM)	> 128	> 188	0.0376	32 (≈ 60.2 µM)	32
CO[C@H]1CC2C=C[C@H]3[C@H]4O[C@]2(/C(C)=C/[C@@H](C)[C@@H](C(C)NC2CC2)OC1=O)[C@@H]3[C@H](O)[C@@H](C)[C@H]4OC(=O)c1ccc[nH]1 (stereo partly drawn) [Example 185]	> 128	> 128	> 180	< 0.0108	> 128	> 128
CO[C@H]1C[C@H]2C=C[C@H]3[C@H]4O[C@]2(/C(C)=C/[C@@H](C)[C@@H]([C@@H](C)O)OC1=O)[C@@H]3[C@H](O)[C@@H](C)[C@H]4OC(C)=O [Example 186]	4 (≈ 8.61 µM)	> 128	64.6	~0.00969	16 (≈ 34.4 µM)	8
CO[C@H]1C[C@H]2C=C[C@H]3[C@H]4O[C@]2(/C(C)=C/[C@@H](C)[C@@H]([C@@H](C)O)OC1=O)[C@@H]3[C@H](OC(N)=O)[C@@H](C)[C@H]4O [Example 187]	16 (≈ 34.4 µM)	> 128	> 215	0.387	32 (≈ 68.7 µM)	> 128
CO[C@H]1C[C@H]2C=C[C@H]3[C@H]4O[C@]2(/C(C)=C/[C@@H](C)[C@@H]([C@@H](C)O)OC1=O)[C@@H]3[C@H](O)C(C)[C@H]4C#N (stereo partly drawn) [Example 188, (3R,4S,7S,8aS,10aR,11R,12S,14R,14aS,14bS,E)-14-hydroxy-4-((R)-1-hydroxyethyl)-7-methoxy-1,3,13-trimethyl-6-oxo-3,4,6,7,8,8a,10a,11,12,13,14,14a-dodecahydro-11,14b-epoxynaphtho[2,1-e]oxecine-12-carbonitrile]	32 (≈ 74.2 µM)	128 (≈ 297 µM)	> 232	0.232	64 (≈ 148 µM)	128
CC[C@H]1OC(=O)[C@@H](OC)C[C@H]2C=C[C@H]3[C@H]4O[C@]2(/C(C)=C/[C@H]1C)[C@@H]3[C@H](O)C(C)[C@H]4C#N (stereo partly drawn) [Example 189, (3R,4R,7S,8aS,10aR,11R,12S,14R,14aS,14bS,E)-4-ethyl-14-hydroxy-7-methoxy-1,3,13-trimethyl-6-oxo-3,4,6,7,8,8a,10a,11,12,13,14,14a-dodecahydro-11,14b-epoxynaphtho[2,1-e]oxecine-12-carbonitrile]	> 128	> 128	> 241	144	> 128	> 128
CO[C@H]1C[C@H]2[C@H](O)C[C@H]3[C@H]4O[C@]2(/C(C)=C/[C@@H](C)[C@@H]([C@@H](C)O)OC1=O)[C@@H]3[C@H](O)[C@@H](C)[C@H]4OC(=O)c1ccc[nH]1 [Example 191]	128 (≈ 240 µM)	> 128	> 187	7.5	> 128	> 128
CO[C@H]1C[C@H]2C[C@H](O)[C@H]3[C@H]4O[C@]2(/C(C)=C/[C@@H](C)[C@@H]([C@@H](C)O)OC1=O)[C@@H]3[C@H](O)[C@@H](C)[C@H]4OC(=O)c1ccc[nH]1 [Example 192]	> 128	> 128	> 187	18.7	> 128	> 128
CO[C@H]1C[C@H]2[C@@H](O)C[C@H]3[C@H]4O[C@]2(/C(C)=C/[C@@H](C)[C@@H]([C@@H](C)O)OC1=O)[C@@H]3[C@H](O)[C@@H](C)[C@H]4OC(=O)c1ccc[nH]1 [Example 193]	64 (≈ 120 µM)	> 128	> 187	1.87	> 128	> 128
CO[C@H]1C[C@H]2C[C@@H](O)[C@H]3[C@H]4O[C@]2(/C(C)=C/[C@@H](C)[C@@H]([C@@H](C)O)OC1=O)[C@@H]3[C@H](O)[C@@H](C)[C@H]4OC(=O)c1ccc[nH]1 [Example 194]	128 (≈ 240 µM)	> 128	> 187	9.37	> 128	> 128
CO[C@H]1C[C@H]2C=C[C@H]3[C@H]4O[C@]2(/C(C)=C/[C@@H](C)[C@@H]([C@@H](C)O)OC1=O)[C@@H]3[C@H](O)[C@@H](C)[C@H]4OC(=O)c1cccn1C [Example 196]	64 (≈ 121 µM)	128 (≈ 242 µM)	> 189	9.82	> 128	> 128
CO[C@H]1C[C@H]2C=C[C@H]3[C@H]4O[C@]2(/C(C)=C/[C@@H](C)[C@@H]([C@@H](C)O)OC1=O)[C@@H]3[C@H](O)[C@@H](C)[C@H]4OC(N)=O [Example 197]	2 (≈ 4.3 µM)	> 128	81.6	0.0236	2 (≈ 4.3 µM)	128
CO[C@H]1C[C@H]2C=CC3C4[C@H](O)[C@@H](C)[C@@H](OC(=O)c5ccc[nH]5)[C@@H]3O[C@]42/C(C)=C/[C@@H](C)[C@@H]([C@@H](C)OS(=O)(=O)O)OC1=O [Example 198]	4 (≈ 6.72 µM)	> 128	20.1	< 0.0101	64 (≈ 107 µM)	4
C=C1C[C@H]2[C@H]3O[C@]4(/C(C)=C/[C@@H](C)[C@@H]([C@@H](C)O)OC(=O)[C@@H](OC)C[C@@H]14)[C@@H]2[C@H](O)[C@@H](C)[C@H]3OC(=O)c1ccc[nH]1 [Example 199]	16 (≈ 30.2 µM)	> 128	142	0.0283	> 128	32
C=C1C[C@@H]2C[C@H](OC)C(=O)O[C@H]([C@@H](C)O)[C@H](C)/C=C(\C)[C@]23O[C@H]2[C@H](OC(=O)c4ccc[nH]4)[C@H](C)[C@@H](O)[C@@H]3[C@@H]12 [Example 200]	2 (≈ 3.78 µM)	128 (≈ 242 µM)	> 189	0.0113	64 (≈ 121 µM)	8
CO[C@H]1CC2C=C[C@H]3[C@H]4O[C@]2(/C(C)=C/[C@@H](C)[C@@H](C(C)O)OC1=O)[C@@H]3[C@H](O)[C@@H](C)[C@H]4OC(=O)c1[nH]c(-c2ccsc2)c(-c2ccsc2)c1-c1ccsc1 (stereo partly drawn) [Example 201]	> 128	128 (≈ 168 µM)	0.525	0.394	> 128	> 128
CO[C@H]1C[C@H]2C=C[C@@H]3[C@H]4[C@H](O)[C@@H](C)C(=O)[C@@H]3O[C@]42/C(C)=C/[C@@H](C)[C@@H]([C@@H](C)O)OC1=O [Example 202]	128 (≈ 304 µM)	> 128	> 238	78.5	> 128	> 128
CO[C@H]1C[C@H]2C=C[C@H]3[C@H]4O[C@]2(/C(C)=C/[C@@H](C)[C@@H]([C@@H](C)O)OC1=O)[C@@H]3[C@H](O)[C@@H](C)[C@H]4OC(=O)c1cccn1C(C)=O [Example 203]	< 0.125	128 (≈ 230 µM)	11.7	< 0.0108	16 (≈ 28.7 µM)	< 0.125
